This is an account of results in paper PMC7145303, “In Vitro Activities of MMV Malaria Box Compounds against the Apicomplexan Parasite Neospora caninum, the Causative Agent of Neosporosis in Animals” (Molecules, 2020).

The test system of data set [1] is N. caninum tachyzoites. Nature of the data set: N. caninum β-galactosidase reporter strain proliferation in HFF (screen and inhibition curves). In kind it is cell-based. The note with it: Neospora caninum. On the procedure: Figure 2 Dose response curves of 9 Medicines for Malaria Venture (MMV) Malaria Box compounds. […] The inhibition of N. caninum tachyzoite proliferation was determined using a β-galactosidase reporter strain in the presence of a concentration series of compounds added prior to the infection of confluent human foreskin fibroblasts by tachyzoites. The mean values ± SE are indicated for quadruplicates.
For an initial screen, 390 compounds (1 µM compound/well) were added to human foreskin fibroblasts (HFFs) previously seeded in 96-well-plates. DMSO (0.25%) was included as a solvent control. HFF monolayers were either left uninfected or were infected with 10^3 N. caninum beta-galactosidase expressing tachyzoites per well. After 3 days, N. caninum proliferation was assayed by measuring beta-galactosidase activity, and HFF viability was monitored using the Alamar Blue assay. This screen was repeated once for confirmation, yielding identical results. Forty compounds showing values lower than the cut-off of the beta-galactosidase assay were regarded as effective against N. caninum, compounds yielding values lower than the cutoff of the Alamar Blue assay were regarded as cytotoxic. Effective compounds without cytotoxicity were regarded as potential hits and were retained for further experiments. The IC50 values (inhibitory concentration of 50% of the solvent control value) of selected compounds were determined in quadruplicate wells in the same assay set-up and were calculated as described.
(§1) To define the cutoff values in the initial screening, compounds were regarded as effective against N. caninum when the beta-galactosidase values were lower than the mean values of the controls (8 replicates) minus three times the standard deviation of these control values. Furthermore, compounds were regarded as cytotoxic when the Alamar Blue values were lower than the mean values of the untreated controls (8 replicates) minus three times the standard deviation of these control values. The IC50 values were calculated after the logit-log transformation of the relative growth (RG; control = 1) according to the formula ln (RG/(1 − RG)) = a × ln(drug concentration) + b, and the subsequent regression analysis was carried out using the corresponding software tool contained in the Excel software package (Microsoft, Seattle, WA, USA).

Details of data set [2]: AUC0-inf / AUC0-last: unit not given here. The note with it: mice, p.o., data provided by MMV, cited from earlier work; for AUC0-last / MRT0-last / Tlast / Tmax / Cmax: 114 µmol/kg (1),(5), 119 µmol/kg (2); for Cmax: plasma.
The subject of data set [3] is Cryptosporidium parvum. Also on record: method as in PMID 24566188. The note with it: cited from earlier work.
In data set [4] the test system is N. caninum tachyzoites. In kind it is cell-based, Neospora caninum. The conditions noted are these: 500 nM, TEM at 6, 12, 24, 48 h of treatment. The method, then:
The transmission electron microscopy of N. caninum-infected HFF monolayers was done as previously described. Briefly, HFFs were grown to confluency in 6-well tissue culture devices and were infected with freshly isolated N. caninum tachyzoites during 2 h at 37 °C/5% CO2. After one wash in PBS, treatments with the compounds (1), (2), and (5) were initiated, all at 500 nM. The controls were treated with the corresponding amount of DMSO. After 6, 12, 24, or 48 h, samples were rinsed in PBS, and were fixed in 100 mM of cacodylate buffer pH7.3 containing 2.5% glutaraldehyde for 2 h at room temperature. The cells were scraped and centrifuged at 1000 g for 10 min at 4 °C and, and the resulting pellet was further fixed in the same solution at 4 °C overnight, followed by post-fixation in 2% OsO4 in cacodylate buffer for 4 h at 4 °C. Subsequently, the specimens were washed and pre-stained in Uranyless^TM (Electron Microscopy Sciences, Hatfield, PA, USA), followed by dehydration in a graded series of ethanol (30%, 50%, 70%, 90%, and 100%). They were finally embedded in Epon 820 epoxy resin over a period of 2 days with 3 resin changes. The resin was polymerized at 65 °C for 24 h, and 80-nm sections were cut on a Reichert and Jung ultramicrotome. The sections were loaded onto 300-mesh copper grids (Plano GmbH, Marburg, Germany) and were stained with Uranyless^TM and lead citrate as described.

The conditions of data set [5]: source of values not stated; cited from earlier work.
The test system of data set [6] is Plasmodium falciparum blood forms. Set-up: method as in PMID 31665424. The conditions noted are these: cited from earlier work.
Data set [7] has as its system Theileria annulata. The conditions noted are these: cited from earlier work; for Therapeutic index: T. annulata vs macrophages.
Data set [8] has as its system Brugia malayi. Also on record: method as in PMID 27467575. The note with it: cited from earlier work.
Data set [9] relates to cysteine proteinases. Also on record: method as in PMID 27467575. The conditions noted are these: functional assays; cited from earlier work.
Data set [10] has as its system human foreskin fibroblasts (HFFs). Nature of the data set: HFF viability, Alamar Blue assay. It counts as cell-based. The conditions noted are these: 1 µM compound/well, uninfected confluent HFF, 3 days. On the procedure:
For an initial screen, 390 compounds (1 µM compound/well) were added to human foreskin fibroblasts (HFFs) previously seeded in 96-well-plates. DMSO (0.25%) was included as a solvent control. HFF monolayers were either left uninfected or were infected with 10^3 N. caninum beta-galactosidase expressing tachyzoites per well. After 3 days, N. caninum proliferation was assayed by measuring beta-galactosidase activity, and HFF viability was monitored using the Alamar Blue assay. This screen was repeated once for confirmation, yielding identical results. […]
as §1, with “Furthermore, compounds were regarded as cytotoxic when the Alamar Blue values were lower than the mean values of the untreated controls (8 replicates) minus three times the standard deviation of these control values.” left out
(Alamar Blue is a resazurin reagent that responds to reducing activity.)

Where [11] appears, read: 72 h, 3 days, concentration range 0–250 nM, with 95% confidence intervals.

SMILES strings stand for the structures. Read-outs that look alike come from different tables or passages of the source.

A word on the IC50: it is the concentration that gives 50% inhibition. In general, Tmax refers to the time from dosing to the highest level. The Cmax is the maximum level reached in the sampled fluid or tissue. For orientation: LogP means a log measure of how a compound divides between an organic and an aqueous phase. Regarding `O=C1c2ccc3c4c(ccc(c24)C(=O)N1CCCCO)C(=O)N(CCCCO)C3=O` [Compound (5)], in [1], the half-inhibitory concentration (IC50) is less than 200 nM. Also, in data set [1] (setting [11]), 150 ± 30 nM corresponded to half-maximal inhibition (IC50). In data set [2], the AUC0-last is given as 0.475, the MRT0-last is 1.55 h, the Tlast was 7.00 h and the time to peak (Tmax) is reported as 0.444 h. Besides, the Cmax in data set [2] is 308 nM. In addition, in data set [2] (114 µmol/kg), the AUC0-inf was 0.486, the MRT0-inf is reported as 1.80 h and the T1/2 is reported as 1.48 h. In addition, in data set [3], the “Effectiveness against C. parvum” value is recorded as “effective against C. parvum with an IC50 in same range”. In data set [4], the “Effects on the ultrastructure of N. caninum tachyzoites” value (from here on “Effects on the ultrastructure”) is “ongoing proliferation despite clear ultrastructural alterations”. For the same compound, in [4] (listed as MMV009085), the “Effects on the ultrastructure” value is recorded as “specifically induced distinct alterations in the tachyzoites”. Besides, the LogP in [5] was −1.30.

For the compound `COc1ccc(C(=O)NC(c2ccc(Cl)cc2Cl)c2cc(Cl)c3cccnc3c2O)cc1` (stereo not drawn) [Compound (4)], in data set [1] (setting [11]), the half-maximal inhibitory concentration (IC50) was determined as 79 ± 10 nM. Besides, the “Effectiveness against C. parvum” value in data set [3] was “effective against C. parvum”. Further, in [6], the “Rapidity of action against P. falciparum blood forms” value was “relatively slowly”. Besides, in [7], the Therapeutic index result is reported as “around 18” and the “Effectiveness against T. annulata” value is on record as “most effective against T. annulata”. Besides, the LogP in data set [5] is 6.15. Further, the “Effectiveness against the helminth Brugia malayi” value in data set [8] is given as “effective”.

In the case of `CCCOCc1cc(CN2CCN(c3cccc(Cl)c3)CC2)c(O)c2ncccc12` [Compound (3)], in data set [1] (setting [11]), inhibition was half-maximal at 99 ± 10 nM (IC50). In addition, the “Rapidity of action against P. falciparum blood forms” value in [6] is “very slowly”. Further, the LogP in data set [5] is on record as 4.71. Moreover, the “Inhibition of cysteine proteinases” value in [9] is “inhibits cysteine proteinases”.

For `O=C(Nc1cccc(C(F)(F)F)c1)c1cc(Cl)ccc1O` [Compound (2)], in data set [1] (setting [11]), inhibition was half-maximal at 71 ± 30 nM (IC50). In data set [2], the MRT0-last is 5.24 h, the Tlast was 9.00 h, the Tmax is listed as 6.33 h and the Cmax was 62 nM. For the same compound, the “Effects on the ultrastructure” value in data set [4] was “after a treatment duration of 12 h (Figure 6C), the loss of the tachyzoite mitochondrial matrix was evident”. Also, the “Effects on the ultrastructure” value in [4] (listed as MMV665807) is “specifically induced distinct alterations in the tachyzoites”. The “Rapidity of action against P. falciparum blood forms” value in data set [6] is on record as “very rapidly”. Further, the LogP in data set [5] is recorded as 6.06.

In the case of `CN(C)c1ccc(C(O)(c2ccc(N(C)C)cc2)c2ccc(N(C)C)cc2)cc1` [Compound (1)], in data set [1] (setting [11]), the IC50 amounted to 25 ± 5 nM. In data set [2], the AUC0-last is 27.2, the MRT0-last is given as 4.80 h, the Tlast was 9.00 h and the time of peak concentration (Tmax) was 5.00 h. In addition, the peak concentration (Cmax) in data set [2] was 1090 nM. For the same compound, the IC50 in data set [3] (read-out: IC50 against Cryptosporidium parvum) is approximately 800 nM. Besides, in data set [4], the “Effects on the ultrastructure” value is “cytoplasmic vacuoles that were already detectable after 6 h of treatment”. Also, in [4] (listed as MMV665941), the “Effects on the ultrastructure” value is reported as “specifically induced distinct alterations in the tachyzoites”. Further, in [6], the “Rapidity of action against P. falciparum blood forms” value is reported as “more slowly than artesunate, but faster than atovaquone”. Further, in data set [7], the Therapeutic index is on record as 2.5 and the “Effectiveness against T. annulata” value is “most effective against T. annulata”. Also, in data set [10], the “Cytotoxicity against HFFs” value is given as “did not affect confluent HFFs”. The log partition coefficient (LogP) in data set [5] was 4.76.
